Data as given in patent US7928097B2, “Photoreactive compounds and compositions” (priority 2001, dated 2011).
Like-named read-outs stand apart in the source and are kept apart here.

Tests used:
[1] = system: polynucleotide having the sequence ATACATGGTACATA; test: Photoactivation and binding to 14mer polynucleotide; details: 1 mM ATACATGGTACATA, blue light as example 9; NMR
Experimental: The procedure of example 9 was repeated with a 1 mM solution of a polynucleotide having the sequence ATACATGGTACATA, and using the compound obtained in example 2 in place of that obtained in example 1.

HaCaT = test: Phototoxicity, neutral red dye uptake, HaCaT cells; assay type: cell-based
Experimental: (§1) 2×6 ft Cosmolux RA Plus (Cosmedico), 15500/100 W light sources were used, each filtered to attenuate UVB/UVC wavelengths. Irradiance was measured with a Waldmann PUMA meter, calibrated to the source using a double grating Spectroradiometer (Bentham, UK).
(§2) Immediately before use, the compounds were dissolved in warm Earle's Balanced Salt Solution (EBSS), sonicated and vortexed to assist dissolution. For experiments, cells were seeded at densities of 3- or 5×10^4 cells/cm^2. After overnight incubation, washed cells were incubated with test compounds in EBSS for 1 h at 310 K/5% CO2. Cells were then irradiated with 5 J cm^−2 glass filtered UVA (1.77 mW cm^−2: λmax 365 nm) for 50 min. Test compounds were removed and cells either prepared immediately for photogenotoxicity assays, or incubated with complete medium for 24 h before assessing phototoxicity. Control plates were treated identically to the test plates and sham irradiated.
(§3) Phototoxicity was monitored by measuring the uptake of neutral red dye into viable cells. Briefly, after irradiation cells were washed and then incubated with DMEM containing 5% FCS, 1% NEAA and 50 μg ml^−1 neutral red dye for 3 h at 310 K/5% CO2. After this time, cells were rapidly washed with formaldehyde containing 1% (w/v) CaCl2, and solubilised in 50% EtOH containing 1% acetic acid. Absorbance was read at 540 nm against a solubilisation solution as blank. The IC50 value was defined as the concentration of compound that inhibited dye uptake by 50% and was calculated using non-linear regression (Graphpad Prism). Goodness of fit was determined from the R^2 values of the curves and 95% confidence intervals.

A2780 = test: Phototoxicity, neutral red dye uptake, A2780 cells; assay type: cell-based
Experimental: as §1, §2, §3

A2780CIS = test: Phototoxicity, neutral red dye uptake, A2780CIS cells; assay type: cell-based
Experimental: as §1, §2, §3

[2] = dark, sham irradiated control, read-out: IC50 Value HaCaT Dark
[3] = irradiated 5 J cm^-2 UVA, λmax 365 nm, 50 min, neutral red uptake after 24 h, read-out: IC50 Value HaCaT 365 nm
[4] = dark, sham irradiated control, read-out: IC50 Value A2780 Dark
[5] = irradiated 5 J cm^-2 UVA, λmax 365 nm, 50 min, neutral red uptake after 24 h, read-out: IC50 Value A2780 365 nm
[6] = dark, sham irradiated control, read-out: IC50 Value A2780CIS Dark
[7] = irradiated 5 J cm^-2 UVA, λmax 365 nm, 50 min, neutral red uptake after 24 h, read-out: IC50 Value A2780CIS 365 nm

Q: Which “Binding to 14mer polynucleotide after photoactivation” value [1] does the source give for “Cis,trans-[Pt^IV(en)(N3)2(OH)2] [Example 2]” here?
A: binding of species containing the cis-[PtII(en)] moiety to the GG moiety had taken place

Q: “Trans,trans,trans-[Pt(N3)2(OH)2(NH3)(2-pic)] [FM171]” was tested. Which IC50 (HaCaT; [2]) did it give?
A: > 236 µM

Q: What about the IC50 (HaCaT; [3]) of the same substance?
A: 55.3 µM

Q: And the IC50 (A2780; [4])?
A: > 236 µM

Q: What about the IC50 (A2780; [5]) of the same substance?
A: 51 µM

Q: And the IC50 (A2780CIS; [6])?
A: > 236 µM

Q: And the IC50 (A2780CIS; [7])?
A: 59.8 µM

Q: What does the source list for “Trans,trans,trans-[Pt(N3)2(OH)2(NH3)(4-pic)] [FM174]”?
A: IC50 (HaCaT; [2]): 98.8 µM; IC50 (HaCaT; [3]): 6.5 µM

Q: With “Trans,trans,trans-[Pt(N3)2(OH)2(NH3)(py)] [FM165]” as the substance, how does the IC50 (HaCaT; [2]) read?
A: > 244 µM

Q: What about the IC50 (HaCaT; [3]) of the same substance?
A: 6.1 µM

Q: What about the IC50 (A2780; [4]) of the same substance?
A: > 244 µM

Q: What about the IC50 (A2780; [5]) of the same substance?
A: 1.9 µM

Q: And the IC50 (A2780CIS; [6])?
A: > 244 µM

Q: And the IC50 (A2780CIS; [7])?
A: 16.9 µM

Q: Which results are given for “Trans,trans,trans-[Pt(N3)2(OH)2(NH3)(tz)] [FM172]”?
A: IC50 (HaCaT; [2]): > 241 µM; IC50 (HaCaT; [3]): 5.8 µM; IC50 (A2780; [4]): 187 µM; IC50 (A2780; [5]): 5.4 µM; IC50 (A2780CIS; [6]): > 241 µM; IC50 (A2780CIS; [7]): 16.1 µM
